Source: paper PMC5776677 (Journal of medicinal chemistry, 2016)
Counter-ions that a name gives are not always drawn.

What was measured:
HBV = assay: Anti-HBV activity in HepG2; type: cell-based
Aqueous solubility = type: physicochemical
[1] = Cytotoxicity in uninfected PBMCs; type: cell-based; conditions: human
[2] = type: physicochemical
HIV-1 [3] = assay: Anti-HIV-1 activity in HIV-infected PBMCs; conditions: for TI (CC50/EC50), HIV-1: HIV-1, PBMCs
HIV-1 [4] = conditions: read-out: EC50 against HIV-1; cited from earlier work

CCCCCCCCCCCCCCCCSSCCOP(=O)(O)CO[C@H](C)Cn1cnc2c(N)ncnc21 [1b, 2-(hexadecyldisulfanyl)ethyl hydrogen ((((R)-1-(6-amino-9H-purin-9-yl)propan-2-yl)oxy)methyl)phosphonate]
TI (CC50/EC50), HBV (HBV): > 1200 | aqueous solubility (Aqueous solubility): poor aqueous solubility

CC(C)OC(=O)OCOP(=O)(CO[C@H](C)Cn1cnc2c(N)ncnc21)OCOC(=O)OC(C)C [TDF, tenofovir disoproxil fumarate]
CC50 [1]: 44 µM

C[C@H](Cn1cnc2c(N)ncnc21)OCP(=O)(O)OCCS [compound 6, 2-mercaptoethyl hydrogen ((((R)-1-(6-amino-9H-purin-9-yl)propan-2-yl)oxy)methyl)phosphonate]
TI (CC50/EC50), HBV (HBV): >2 | stability in glycine/HCl buffer ([2]; pH 2.0, 0.1 M DTT, 37.4 °C): no observed decomposition | stability in PBS ([2]; pH 7.43, TFV appears as new signal): Moderate stability | decomposition in aqueous carbonate/bicarbonate buffer ([2]; pH 9.19, 0.1 M DTT, 37.4 °C): significant decomposition | time to complete consumption of starting material ([2]; pH 10.16): ≤ 8 min | TI (CC50/EC50), HIV-1 (HIV-1 [3]): >5.38 | fold less active than TFV against HIV-infected PBMCs (HIV-1 [3]; relative to TFV): 58 fold

C[C@H](Cn1cnc2c(N)ncnc21)OCP(=O)(O)OCCCCS [compound 7, 4-mercaptobutyl hydrogen ((((R)-1-(6-amino-9H-purin-9-yl)propan-2-yl)oxy)methyl)phosphonate]
TI (CC50/EC50), HBV (HBV): > 1 | stability in various aqueous buffers ([2]; all tested pH values, several hours at 37 °C): no detectable decomposition

C[C@H](Cn1cnc2c(N)ncnc21)OCP(=O)(O)O [TFV, tenofovir, reference compound]
TI (CC50/EC50), HIV-1 (HIV-1 [3]): >300

6-(Dodecyldisulfanyl)hexyl Hydrogen ((((R)-1-(6-Amino-9H-purin-9-yl)propan-2-yl)oxy)methyl)phosphonate [5b]
TI (CC50/EC50), HBV (HBV): >47 | TI (CC50/EC50), HIV-1 (HIV-1 [3]): >7000

CCCCCCCCCCCCCCCCSSCCCCOP(=O)(O)CO[C@H](C)Cn1cnc2c(N)ncnc21 [2b, (R)-4-(hexadecyldisulfanyl)butyl (((1-(6-amino-9H-purin-9-yl)propan-2-yl)oxy)methyl)phosphonate]
TI (CC50/EC50), HBV (HBV): >200 | aqueous solubility (Aqueous solubility): poor aqueous solubility | TI (CC50/EC50), HIV-1 (HIV-1 [3]): >100000

CCCCCCCCCCCCCCCCSSCc1ccccc1COP(=O)(O)CO[C@H](C)Cn1cnc2c(N)ncnc21 [4b, (R)-2-((hexadecyldisulfanyl)methyl)benzyl (((1-(6-amino-9H-purin-9-yl)propan-2-yl)oxy)methyl)phosphonate]
TI (CC50/EC50), HIV-1 (HIV-1 [3]): >31800

CCCCCCCCCCCCCCCCOCCCOP(=O)(O)CO[C@H](C)Cn1cnc2c(N)ncnc21 [CMX-157, Hexadecyloxypropyl-9-R-[2-(Phosphonomethoxy)-Propyl]-Adenine]
EC50 (HIV-1 [4]): 0.02 µM
